Test results from patent US12338238B2, “Inhibitors of SARM1” (Disarm Therapeutics, Inc., priority 2018, dated 2025).

System: mouse dorsal root ganglion (DRG) axons
Assay: Axon degeneration assay in mouse DRG drop culture
Type: cell-based
Settings: protection of axon fragmentation, axonal transection or chemotoxic stimuli
Method: This Example illustrates an in vitro axon degeneration assay used to characterize compounds of Formula I. This assay is used to test the efficacy of the compounds of Formula I to prevent axonal degeneration in a mouse dorsal root ganglion (DRG) drop culture.
Mouse dorsal root ganglion neurons (DRGs) were dissected out of E12.5 CD1 mice (50 ganglion per embryo) and incubated with 0.5% Trypsin solution containing 0.02% EDTA (Gibco) at 37° C. for 15 min. The cells were then triturated by gentle pipetting and washed 3 times with DRG growth medium (Neurobasal medium (Gibco) containing 2% B27 (Invitrogen), 100 ng/ml 2.5S NGF (Harland Bioproducts), […] 5-fluoro-2′deoxyuridine (Sigma), penicillin, and streptomycin). Cells were suspended in the DRG growth medium. DRG drop cultures were created by spotting 5000 cells/well into the center of each well of a 96-well tissue culture plate coated with poly-D-Lysine (0.1 mg/ml; Sigma) and laminin ([…]; Invitrogen). Cells were allowed to adhere to the plates in a humidified tissue culture incubator (5% CO2) for 15 min and then DRG growth medium was gently added ([…]).
Axonal degeneration was stimulated either by manual axonal transection using a scalpel blade, or chemotoxic stimuli. After an appropriate experimental time period, the DRG cultures were fixed in 1% PFA plus sucrose and kept in the fridge prior to imaging. Bright-field images of DRG axons and cell bodies were collected using the 20x water immersion lens of a Phenix automated confocal microscope (PerkinElmer) and quantitation of axonal performed using in-house developed scripts (Acapella, PerkinElmer).

Q: Which IC50 does the source give for Brc1cccc2cnccc12 [Example 8] here?
A: The IC50 was < 10 µM.

Q: Ic1cccc2cnccc12 [Example 26] was tested. Which IC50 did it give?
A: Its IC50 is < 10 µM.

Q: With Clc1cccc2cnccc12 [Example 42] as the compound, how does the IC50 read?
A: The IC50 was 10 to 30 µM.

Target: SARM1 SAM-TIR (Homo sapiens (Human), UniProt Q6SZW1)
Sequence (Q6SZW1 409-724): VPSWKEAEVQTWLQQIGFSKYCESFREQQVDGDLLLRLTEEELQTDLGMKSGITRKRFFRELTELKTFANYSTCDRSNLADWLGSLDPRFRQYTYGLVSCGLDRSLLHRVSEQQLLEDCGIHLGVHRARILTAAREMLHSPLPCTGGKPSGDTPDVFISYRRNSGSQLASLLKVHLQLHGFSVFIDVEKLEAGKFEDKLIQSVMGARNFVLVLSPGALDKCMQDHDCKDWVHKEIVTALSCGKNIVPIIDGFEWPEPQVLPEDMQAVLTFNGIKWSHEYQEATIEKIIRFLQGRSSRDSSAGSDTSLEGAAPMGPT
Assay: biochemical
Type: biochemical
Settings: SAM-TIR lysate 5 μg/mL, 2 hr pre-incubation, 5 μM NAD+, RapidFire MS

Q: Which IC50 does the source give for Brc1cncc2ccccc12 [Example 2] here?
A: The IC50 was 15 to 30 µM.

Q: Which IC50 does the source give for O=c1[nH]cc(I)c2ccncc12 [Example 3] here?
A: Its IC50 is < 5 µM.

Q: How did the IC50 turn out when O=c1[nH]cc(Br)c2ccncc12 [Example 4] was run?
A: The IC50 was < 5 µM.

Q: For O=c1[nH]ccc2ccncc12 [Example 5], which IC50 is on record?
A: Its IC50 is < 5 µM.

Q: How did the IC50 turn out when O=c1[nH]ncc2ccc(F)cc12 [Example 7] was run?
A: The IC50 was > 30 µM.

Q: Brc1cccc2cnccc12 [Example 8] was tested. Which IC50 did it give?
A: The IC50 was < 5 µM.

Q: With Nc1ccc2cnccc2c1Cl [Example 9] as the compound, how does the IC50 read?
A: Its IC50 is 15 to 30 µM.

Q: For Brc1cccc2cnncc12 [Example 10], which IC50 is on record?
A: Its IC50 is < 5 µM.

Q: Oc1cccc2ccncc12 [Example 11] was tested. Which IC50 did it give?
A: The IC50 was < 5 µM.

Q: With Nc1ccc(Br)c2ccncc12 [Example 12] as the compound, how does the IC50 read?
A: Its IC50 is < 5 µM.

Q: How did the IC50 turn out when Cc1cncc2cccc(Br)c12 [Example 13] was run?
A: The IC50 was 5 to 15 µM.

Q: Oc1cc2c(Br)cccc2cn1 [Example 14] was tested. Which IC50 did it give?
A: Its IC50 is > 30 µM.

Q: For COc1ccc(Br)c2ccncc12 [Example 15], which IC50 is on record?
A: The IC50 was < 5 µM.

Q: Brc1ccc2cnncc2c1 [Example 16] was tested. Which IC50 did it give?
A: The IC50 was > 30 µM.

Q: Which IC50 does the source give for Cc1cncc2ccccc12 [Example 17] here?
A: The IC50 was 5 to 15 µM.

Q: How did the IC50 turn out when Nc1nccc2c(I)cccc12 [Example 18] was run?
A: The IC50 was < 5 µM.

Q: With c1cc(C2CC2)c2ccncc2c1 [Example 19] as the compound, how does the IC50 read?
A: The IC50 was 5 to 15 µM.

Q: For CCn1cc(Br)c2ccncc2c1=O [Example 20], which IC50 is on record?
A: Its IC50 is 5 to 15 µM.

Q: For COc1ncc(Br)c2ccncc12 [Example 21], which IC50 is on record?
A: Its IC50 is 5 to 15 µM.

Q: CC(C)c1c[nH]c(=O)c2cnccc12 [Example 22] was tested. Which IC50 did it give?
A: The IC50 was 5 to 15 µM.

Q: For CN(C)c1nccc2c(Br)cccc12 [Example 23], which IC50 is on record?
A: Its IC50 is > 30 µM.

Q: Which IC50 does the source give for COc1ncc(C2CC2)c2ccncc12 [Example 24] here?
A: Its IC50 is > 30 µM.

Q: CC(C)Oc1cccc2cnccc12 [Example 25] was tested. Which IC50 did it give?
A: Its IC50 is > 30 µM.

Q: With CNc1nccc2c(Br)cccc12 [Example 27] as the compound, how does the IC50 read?
A: Its IC50 is > 30 µM.

Q: How did the IC50 turn out when COc1c[nH]c(=O)c2cnccc12 [Example 28] was run?
A: The IC50 was > 30 µM.

Q: For O=c1cc(Br)c2ccncc2[nH]1 [Example 29], which IC50 is on record?
A: The IC50 was < 5 µM.

Q: For Fc1cc(Cl)c2ccncc2c1 [Example 30], which IC50 is on record?
A: The IC50 was < 5 µM.

Q: Nc1ccc(Cl)c2ccncc12 [Example 32] was tested. Which IC50 did it give?
A: The IC50 was < 5 µM.

Q: O=c1[nH]ccc2c(Br)cccc12 [Example 33] was tested. Which IC50 did it give?
A: The IC50 was 5 to 15 µM.

Q: With Clc1ccc(Br)c2cnccc12 [Example 34] as the compound, how does the IC50 read?
A: The IC50 was 15 to 30 µM.

Q: Nc1cccc2cncc(Br)c12 [Example 35] was tested. Which IC50 did it give?
A: Its IC50 is 15 to 30 µM.

Q: c1cc2ccncc2cn1 [Example 36] was tested. Which IC50 did it give?
A: The IC50 was 15 to 30 µM.

Q: How did the IC50 turn out when Nc1cccc2cnncc12 [Example 37] was run?
A: Its IC50 is 15 to 30 µM.

Q: Which IC50 does the source give for Nc1nccc2ccncc12 [Example 38] here?
A: The IC50 was > 30 µM.

Q: O=c1[nH]ccc2ccc(O)cc12 [Example 39] was tested. Which IC50 did it give?
A: The IC50 was > 30 µM.

Q: Which IC50 does the source give for COc1cc2cc[nH]c(=O)c2cc1F [Example 40] here?
A: The IC50 was > 30 µM.

Q: For Clc1ccnc2cnccc12 [Example 41], which IC50 is on record?
A: The IC50 was < 5 µM.

Q: For Clc1cccc2cnccc12 [Example 42], which IC50 is on record?
A: The IC50 was < 5 µM.

Q: With c1ccc2nnccc2c1 [Example 43] as the compound, how does the IC50 read?
A: Its IC50 is < 5 µM.

Q: For Oc1cccc2cnccc12 [Example 44], which IC50 is on record?
A: Its IC50 is < 5 µM.

Q: Which IC50 does the source give for OCc1cccc2cnccc12 [Example 45] here?
A: Its IC50 is < 5 µM.

Q: Which IC50 does the source give for Nc1ncc(Br)c2ccncc12 [Example 46] here?
A: The IC50 was < 5 µM.

Q: Which IC50 does the source give for O=[N+]([O-])c1cccc2cnccc12 [Example 47] here?
A: The IC50 was 5 to 15 µM.

Q: For c1ccc2cnccc2c1 [Example 48], which IC50 is on record?
A: The IC50 was 5 to 15 µM.

Q: For COc1cccc2cnccc12 [Example 49], which IC50 is on record?
A: Its IC50 is 5 to 15 µM.

Q: For NCc1cccc2cnccc12 [Example 50], which IC50 is on record?
A: The IC50 was 15 to 30 µM.

Q: Which IC50 does the source give for COC(=O)c1cccc2cnccc12 [Example 51] here?
A: Its IC50 is > 30 µM.

Q: Nc1cccc2c(Br)cncc12 [Example 52] was tested. Which IC50 did it give?
A: The IC50 was > 30 µM.

Q: Which IC50 does the source give for Cc1nccc2c(Br)cccc12 [Example 53] here?
A: Its IC50 is > 30 µM.

Q: How did the IC50 turn out when O=C(O)c1ccnc2cnccc12 [Example 54] was run?
A: Its IC50 is 15 to 30 µM.

Q: Nc1nccc2c(Br)cccc12 [Example 55] was tested. Which IC50 did it give?
A: Its IC50 is < 5 µM.

Q: How did the IC50 turn out when COc1cccc2ccncc12 [Example 56] was run?
A: The IC50 was < 5 µM.

Q: Which IC50 does the source give for Clc1ccc(Cl)c2cnccc12 [Example 57] here?
A: The IC50 was 5 to 15 µM.

Q: How did the IC50 turn out when Cc1cc2c(N)cccc2cn1 [Example 58] was run?
A: Its IC50 is 5 to 15 µM.

Q: Which IC50 does the source give for Oc1cncc2ccccc12 [Example 59] here?
A: Its IC50 is 15 to 30 µM.

Q: With Brc1cccc2cncnc12 [Example 60] as the compound, how does the IC50 read?
A: The IC50 was > 30 µM.

Q: For FC(F)(F)c1cccc2cnccc12 [Example 61], which IC50 is on record?
A: Its IC50 is > 30 µM.

Q: Which IC50 does the source give for Nc1ccc(O)c2cnccc12 [Example 62] here?
A: The IC50 was < 5 µM.

Q: For Nc1cncc2ccccc12 [Example 63], which IC50 is on record?
A: The IC50 was 5 to 15 µM.

Q: Ic1cccc2cnncc12 [Example 64] was tested. Which IC50 did it give?
A: Its IC50 is < 5 µM.

Q: For Oc1ccc(Br)c2ccncc12 [Example 65], which IC50 is on record?
A: The IC50 was < 5 µM.

Q: For Cn1cc(Br)c2ccncc2c1=O [Example 66], which IC50 is on record?
A: The IC50 was < 5 µM.

Q: With Brc1ccnc2cnccc12 [Example 67] as the compound, how does the IC50 read?
A: Its IC50 is < 5 µM.

Q: How did the IC50 turn out when CNc1ncc(Br)c2ccncc12 [Example 68] was run?
A: The IC50 was < 5 µM.

Q: With COc1cc(Br)c2ccncc2n1 [Example 69] as the compound, how does the IC50 read?
A: The IC50 was < 5 µM.

Q: Which IC50 does the source give for Brc1cncc2cnccc12 [Example 70] here?
A: The IC50 was < 5 µM.

Q: Nc1ccnc2cnccc12 [Example 71] was tested. Which IC50 did it give?
A: Its IC50 is 5 to 15 µM.

Q: For CNC(=O)Nc1ncc(Br)c2ccncc12 [Example 72], which IC50 is on record?
A: The IC50 was 5 to 15 µM.

Q: COc1cccc2cnncc12 [Example 73] was tested. Which IC50 did it give?
A: Its IC50 is 5 to 15 µM.

Q: CSc1cccc2cnccc12 [Example 74] was tested. Which IC50 did it give?
A: Its IC50 is 5 to 15 µM.

Q: With Nc1c[nH]c(=O)c2cnccc12 [Example 75] as the compound, how does the IC50 read?
A: Its IC50 is 15 to 30 µM.

Q: Cc1nccc2c(Br)c[nH]c(=O)c12 [Example 76] was tested. Which IC50 did it give?
A: The IC50 was 15 to 30 µM.

Q: With O=S(=O)(Nc1nccc2c(Br)cccc12)C1CC1 [Example 77] as the compound, how does the IC50 read?
A: Its IC50 is 15 to 30 µM.

Q: Which IC50 does the source give for O=c1[nH]cnc2ccncc12 [Example 78] here?
A: Its IC50 is 15 to 30 µM.

Q: With CC(=O)c1cccc2cnccc12 [Example 79] as the compound, how does the IC50 read?
A: Its IC50 is 15 to 30 µM.

Q: O=c1[nH]cc([N+](=O)[O-])c2ccncc12 [Example 80] was tested. Which IC50 did it give?
A: The IC50 was > 30 µM.

Q: With Clc1ncc(Br)c2ccncc12 [Example 81] as the compound, how does the IC50 read?
A: The IC50 was > 30 µM.

Q: For CC(C)(O)c1cccc2cnccc12 [Example 82], which IC50 is on record?
A: Its IC50 is > 30 µM.

Q: How did the IC50 turn out when O=c1[nH]cc(Br)c2cc[n+]([O-])cc12 [Example 83] was run?
A: The IC50 was > 30 µM.

Q: Nc1nccc2c(C3CC3)cccc12 [Example 84] was tested. Which IC50 did it give?
A: Its IC50 is > 30 µM.

Q: How did the IC50 turn out when C#Cc1cccc2cnccc12 [Example 85] was run?
A: Its IC50 is < 5 µM.
